Counter-ions that a name gives are not always drawn. Like-named read-outs stand apart in the source and are kept apart here.
Legend:
[1] = molecular target: T1, BTK (Homo sapiens, UniProt Q06187); test: In Vitro BTK Kinase Assay: Btk-PolyGAT-LS Assay; format: biochemical; settings: active BTK enzyme 0.25 nM, polyGAT 100 nM, 30 minutes, TRF readout; read-out: In Vitro BTK Kinase Assay IC50 Score
T1 construct: purchased Upstate 14-552
Experimental: The purpose of the BTK in vitro assay is to determine compound potency against BTK through the measurement of IC50. Compound inhibition is measured after monitoring the amount of phosphorylation of a fluorescein-labeled polyGAT peptide (Invitrogen PV3611) in the presence of active BTK enzyme (Upstate 14-552), ATP, and inhibitor. The BTK kinase reaction was done in a black 96 well plate (costar 3694). For a typical assay, a 24 μL aliquot of a ATP/peptide master mix (final concentration; ATP […], polyGAT 100 nM) in kinase buffer (10 mM Tris-HCl pH 7.5, 10 mM MgCl2, 200 μM […], 5 mM DTT, 0.01% Triton X-100, and 0.2 mg/ml casein) is added to each well. Next, […] of a 4-fold, 40× compound titration in 100% DMSO solvent is added, followed by adding 15 μL of BTK enzyme mix in 1× kinase buffer (with a final concentration of 0.25 nM). The assay is incubated for 30 minutes before being stopped with 28 μL of a 50 mM EDTA solution. Aliquots (5 uL) of the kinase reaction are transferred to a low volume white 384 well plate (Coming 3674), and 5 μL of a 2× detection buffer (Invitrogen PV3574, with 4 nM Tb—PY20 antibody, Invitrogen PV3552) is added. The plate is covered and incubated for 45 minutes at room temperature. Time resolved fluorescence (TRF) on Molecular Devices M5 (332 nm excitation; 488 nm emission; 518 nm fluorescein emission) is measured. IC50 values are calculated using a four parameter fit with 100% enzyme activity determined from the DMSO control and 0% activity from the EDTA control.

[2] = tested on: CD69 expression on CD19+ B cells in human whole blood; test: In Vitro whole blood CD69 Assay; format: cell-based; settings: B-cell, read-out: In Vitro HWB CD69 Assay IC50 Score
Experimental: Human heparinized venous blood from health donors was aliquoted into 96-well plate and “spiked” with serial dilutions of formula I compounds in DMSO or with DMSO without drug. The final concentration of DMSO in all wells was 0.1%. The plate was incubated at 37° C. for 30 min. Drug-containing samples were stimulated with 0.1 μg/mL mouse anti-human IgD-dextran (1A62) or 20 μg/mL polyclonal rabbit F(ab′)2 anti-human IgD. Phosphate-buffered saline (PBS) was added to the negative control unstimulated sample and the plates were incubated overnight (18 to 22 hours) at 37° C. Cells were stained with fluorochrome-conjugated anti-CD19 and anti-CD69 antibodies. Lyse/fix solution was used to remove red blood cells by hypotonic lysis and to fix the remaining cells, which were then analyzed by flow cytometry. CD19+ B cells were gated and analyzed for CD69 expression.

[3] = human heparinized whole blood, anti-human IgD stimulation overnight, CD19+ B cells, flow cytometry

T1 sequence (Q06187 whole entry): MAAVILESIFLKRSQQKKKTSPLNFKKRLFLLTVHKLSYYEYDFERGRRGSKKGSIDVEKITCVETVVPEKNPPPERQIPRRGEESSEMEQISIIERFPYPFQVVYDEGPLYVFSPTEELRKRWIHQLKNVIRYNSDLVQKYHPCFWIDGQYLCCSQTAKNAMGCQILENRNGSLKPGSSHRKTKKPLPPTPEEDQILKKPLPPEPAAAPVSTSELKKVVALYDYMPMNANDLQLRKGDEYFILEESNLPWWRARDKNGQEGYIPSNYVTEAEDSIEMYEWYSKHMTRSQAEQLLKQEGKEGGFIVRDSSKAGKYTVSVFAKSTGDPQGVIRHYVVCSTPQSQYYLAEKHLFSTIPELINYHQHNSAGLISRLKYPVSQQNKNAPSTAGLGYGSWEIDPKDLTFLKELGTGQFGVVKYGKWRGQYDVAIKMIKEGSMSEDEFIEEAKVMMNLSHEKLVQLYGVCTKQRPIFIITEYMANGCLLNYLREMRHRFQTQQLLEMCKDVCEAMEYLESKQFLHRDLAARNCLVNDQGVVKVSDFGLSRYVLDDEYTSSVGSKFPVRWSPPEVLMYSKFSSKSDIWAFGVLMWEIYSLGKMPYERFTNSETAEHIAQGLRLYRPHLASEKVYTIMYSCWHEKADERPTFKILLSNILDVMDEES

Compound	IC50 [1] [nM]	IC50 [2, 3] [nM]	IC50 ([2]; Homo sapiens) [nM]
CC(C)(C)c1noc(C(=O)NCc2ccc(-c3nc(N4CCOCC4)cn4nccc34)cc2)n1 [Example 24, 3-(tert-butyl)-N-(4-(6-morpholinopyrazolo[1,5-a]pyrazin-4-yl)benzyl)-1,2,4-oxadiazole-5-carboxamide]	10 to 1000	1000 to 10000	
Cc1c(CNC(=O)c2noc(C(C)(C)C)n2)ccc(-c2nc(-c3cnn(C)c3)cc3nccn23)c1F [Example 79, 5-(tert-butyl)-N-(3-fluoro-2-methyl-4-(7-(1-methyl-1H-pyrazol-4-yl)imidazo[1,2-c]pyrimidin-5-yl)benzyl)-1,2,4-oxadiazole-3-carboxamide]	< 1	< 1000	
Cn1cc(-c2cc(-c3ccc(CNC(=O)c4noc(C(C)(C)C)n4)c(F)c3)c3ccnn3c2)cn1 [Example 68, 5-(tert-butyl)-N-(2-fluoro-4-(6-(1-methyl-1H-pyrazol-4-yl)pyrazolo[1,5-a]pyridin-4-yl)benzyl)-1,2,4-oxadiazole-3-carboxamide]	< 1		< 1000
Cn1cc(-c2cn3nccc3c(N3CC[C@H](CNC(=O)c4cn(C(C)(C)C)nn4)[C@H](F)C3)n2)cn1 [Example 152, 1-(tert-butyl)-N-((3-fluoro-1-(6-(1-methyl-1H-pyrazol-4-yl)pyrazolo[1,5-a]pyrazin-4-yl)piperidin-4-yl)methyl)-1H-1,2,3-triazole-4-carboxamide]	1 to 10	1000 to 10000	
Cc1cc(-c2nc(N3CCN(C)CC3)cn3nccc23)ccc1CNC(=O)c1cn(C(C)(C)C)nn1 [Example 121, 1-(tert-butyl)-N-(2-methyl-4-(6-(4-methylpiperazin-1-yl)pyrazolo[1,5-a]pyrazin-4-yl)benzyl)-1H-1,2,3-triazole-4-carboxamide trifluoroacetate]	10 to 1000	1000 to 10000	
Cn1cc(-c2cn3nccc3c(N3CCC(C)(CNC(=O)c4noc(C5(C)CC5)n4)CC3)n2)cn1 [Example 46, N-((4-methyl-1-(6-(1-methyl-1H-pyrazol-4-yl)pyrazolo[1,5-a]pyrazin-4-yl)piperidin-4-yl)methyl)-5-(1-methylcyclopropyl)-1,2,4-oxadiazole-3-carboxamide]	10 to 1000	1000 to 10000	
CC1CN(c2nc(-c3cnn(C)c3)cn3nccc23)CCC1CNC(=O)c1noc(C(C)(C)C)n1 (stereo not shown) [Example 144, 5-(tert-butyl)-N-((3-methyl-1-(6-(1-methyl-1H-pyrazol-4-yl)pyrazolo[1,5-a]pyrazin-4-yl)piperidin-4-yl)methyl)-1,2,4-oxadiazole-3-carboxamide]	1 to 10		< 1000
Cn1cc(-c2cn3nccc3c(N3CC[C@H](CNC(=O)c4noc(C5(C)CC5)n4)[C@H](F)C3)n2)cn1 [Example 154, N-(((3S,4R)-3-fluoro-1-(6-(1-methyl-1H-pyrazol-4-yl)pyrazolo[1,5-a]pyrazin-4-yl)piperidin-4-yl)methyl)-5-(1-methylcyclopropyl)-1,2,4-oxadiazole-3-carboxamide]	10 to 1000	1000 to 10000	
Cn1cc(-c2cn3nccc3c(N3CCC(C)(CNC(=O)c4cn(C(C)(C)C)nn4)CC3)n2)cn1 [Example 44, 1-(tert-butyl)-N-((4-methyl-1-(6-(1-methyl-1H-pyrazol-4-yl)pyrazolo[1,5-a]pyrazin-4-yl)piperidin-4-yl)methyl)-1H-1,2,3-triazole-4-carboxamide]	10 to 1000	1000 to 10000	
Cc1cc(-c2nc(N3CCN(C)CC3)cn3nccc23)ccc1CNC(=O)c1nnn(C(C)(C)C)n1 [Example 130]	1 to 10	1000 to 10000	
C[C@H]1CN(c2nc(-c3cnn(C)c3)cn3nccc23)CC[C@@H]1CNC(=O)c1noc(C2(C)CC2)n1 (single isomer, unassigned) [Example 148]	1 to 10	1000 to 10000	

Second part, led by results:

IC50 [1] [nM]	IC50 [2, 3] [nM]	Compound	IC50 ([2]; Homo sapiens) [nM]
< 1	< 1000	Cn1cc(-c2cn3nccc3c(-c3ccc(CNC(=O)c4cn(C(C)(C)C)nn4)c(F)c3)n2)cn1 [Example 9, 1-(tert-butyl)-N-(2-fluoro-4-(6-(1-methyl-1H-pyrazol-4-yl)pyrazolo[1,5-a]pyrazin-4-yl)benzyl)-1H-1,2,3-triazole-4-carboxamide]	
< 1	< 1000	Cn1cc(-c2cn3nccc3c(-c3ccc(CNC(=O)c4noc(C5(C)CC5)n4)c(F)c3)n2)cn1 [Example 8, N-(2-fluoro-4-(6-(1-methyl-1H-pyrazol-4-yl)pyrazolo[1,5-a]pyrazin-4-yl)benzyl)-5-(1-methylcyclopropyl)-1,2,4-oxadiazole-3-carboxamide]	
< 1	< 1000	Cn1cc(-c2cn3nccc3c(-c3ccc(CNC(=O)c4nnn(C(C)(C)C)n4)cc3F)n2)cn1 [Example 114, 2-(tert-butyl)-N-(3-fluoro-4-(6-(1-methyl-1H-pyrazol-4-yl)pyrazolo[1,5-a]pyrazin-4-yl)benzyl)-2H-tetrazole-5-carboxamide]	
1 to 10	< 1000	Cn1cc(-c2cn3nccc3c(-c3ccc4c(c3)CN(CC(F)(F)F)CC[C@H]4NC(=O)c3cn(C(C)(C)C)nn3)n2)cn1 [Example 40, (R)-1-(tert-butyl)-N-(8-(6-(1-methyl-1H-pyrazol-4-yl)pyrazolo[1,5-a]pyrazin-4-yl)-2-(2,2,2-trifluoroethyl)-2,3,4,5-tetrahydro-1H-benzo[c]azepin-5-yl)-1H-1,2,3-triazole-4-carboxamide]	
10 to 1000	1000 to 10000	Cn1cc(-c2cc3nccn3c(-c3ccc(CNC(=O)c4ccn(C(C)(C)C)n4)cc3)n2)cn1 [Example 56, 1-(tert-butyl)-N-(4-(7-(1-methyl-1H-pyrazol-4-yl)imidazo[1,2-c]pyrimidin-5-yl)benzyl)-1H-pyrazole-3-carboxamide]	
< 1	< 1000	Cn1cc(-c2cn3nccc3c(-c3ccc(CNC(=O)c4cnn(C(C)(C)C)n4)c(F)c3F)n2)cn1 [Example 92, 2-(tert-butyl)-N-(2,3-difluoro-4-(6-(1-methyl-1H-pyrazol-4-yl)pyrazolo[1,5-a]pyrazin-4-yl)benzyl)-2H-1,2,3-triazole-4-carboxamide]	
< 1	< 1000	Cn1cc(-c2cn3nccc3c(-c3ccc(CNC(=O)c4noc(C(C)(C)C)n4)c(C(F)F)c3)n2)cn1 [Example 86, 5-(tert-butyl)-N-(2-(difluoromethyl)-4-(6-(1-methyl-1H-pyrazol-4-yl)pyrazolo[1,5-a]pyrazin-4-yl)benzyl)-1,2,4-oxadiazole-3-carboxamide]	
1 to 10	< 1000	Cn1cc(-c2cn3nccc3c(-c3ccc(CNC(=O)c4cnn(C(C)(C)C)c4)cc3)n2)cn1 [Example 2, 1-(tert-butyl)-N-(4-(6-(1-methyl-1H-pyrazol-4-yl)pyrazolo[1,5-a]pyrazin-4-yl)benzyl)-1H-pyrazole-4-carboxamide]	
1 to 10	1000 to 10000	Cn1cc(-c2cc3nccn3c(-c3ccc(CNC(=O)c4cnn(C(C)(C)C)c4)cc3)n2)cn1 [Example 57, 1-(tert-butyl)-N-(4-(7-(1-methyl-1H-pyrazol-4-yl)imidazo[1,2-c]pyrimidin-5-yl)benzyl)-1H-pyrazole-4-carboxamide]	
1 to 10	1000 to 10000	Cn1cc(-c2cn3nccc3c(-c3cc(F)c(CNC(=O)c4coc(C(C)(C)C)n4)cc3F)n2)cn1 [Example 95, 2-(tert-butyl)-N-(2,5-difluoro-4-(6-(1-methyl-1H-pyrazol-4-yl)pyrazolo[1,5-a]pyrazin-4-yl)benzyl)oxazole-4-carboxamide]	
1 to 10	< 1000	Cn1cc(-c2cc3nccn3c(-c3ccc(CNC(=O)c4cn(C(C)(C)C)nn4)cc3)n2)cn1 [Example 59, 1-(tert-butyl)-N-(4-(7-(1-methyl-1H-pyrazol-4-yl)imidazo[1,2-c]pyrimidin-5-yl)benzyl)-1H-1,2,3-triazole-4-carboxamide]	
< 1	< 1000	Cc1cc(-c2nc(-c3cnn(C)c3)cn3nccc23)ccc1CNC(=O)c1noc(C(C)(C)C)n1 [Example 80, 5-(tert-butyl)-N-(2-methyl-4-(6-(1-methyl-1H-pyrazol-4-yl)pyrazolo[1,5-a]pyrazin-4-yl)benzyl)-1,2,4-oxadiazole-3-carboxamide]	

— patent US20250034150A1, “BTK INHIBITORS” (BIOGEN MA INC., priority 2021, published 2025)
